# Measurements: patent EP3705117A1, “MELATONIN HAVING IMPROVED WATER SOLUBILITY, ITS PREPARATION AND USES THEREOF” (Tradichem Industrial Services, S.L., priority 2019, dated 2020)
# Format: physicochemical
# Conditions: for melatonin available in the solution / solubilized: 7 min, 0.2 mg/mL
# Description: The water solubility of non-compacted melatonin (starting material used for compaction in Example 1) and the solubility of the compacted melatonin prepared in Example 1 were compared.
# Three samples of 10 mg each of non-compacted melatonin and three samples of 10 mg each of compacted melatonin were introduced in separate beakers and tap water at 22 °C was added to each beaker to a volume of 10, 25 or 50 ml (assays A, B and C, respectively). Each tested mixture was sonicated for 5 minutes and subsequently subjected to magnetic stirring at 200 rpm for 2 more minutes.
"Solubility test, assay A (10 mg / 10 ml)","Solubility test, assay B (10 mg / 25 ml)",melatonin available in the solution / solubilized,"dissolution rate compared with non-compacted melatonin (ocular inspection, in each of assays A, B and C (10 mg in 10, 25 or 50 ml water))","melatonin remained as solid, not dissolved (HPLC analysis, assay C, 10 mg in 50 ml tap water at 22 °C)",Compound
(partially dissolved),(partially dissolved),100%,higher dissolution rate,–,"COc1ccc2[nH]cc(CCNC(C)=O)c2c1 [Compacted-melatonin, N-[2-(5-methoxy-1H-indol-3-yl)ethyl)acetamide]"
(partially dissolved),(partially dissolved),79%,–,21%,"COc1ccc2[nH]cc(CCNC(C)=O)c2c1 [Non-compacted melatonin, N-[2-(5-methoxy-1H-indol-3-yl)ethyl)acetamide]"
